# In patent US6900216B2, “Dihydroimidazo[2,1-b]thiazole and dihydro-5h-thiazolo[3,2-A]pyrimidines as antidepressant agents” (Knoll GmbH, priority 2000, dated 2005):
# Test system: muscarinic receptors
# Assay: Muscarinic binding: displacement of [3H]N-methylscopolamine, rat frontal cortical membranes
# Conditions: for Muscarinic % displacement at 10^−6 M: 10^−6 M test compound, single determination, [3H]N-methylscopolamine; for Ki: [3H]N-methylscopolamine 0.15 nM, rat frontal cortical membranes
# Experimental: Frontal cortical tissue from the brains of male Charles River rats weighing 150-250 g was homogenised in ice-cold 20 mM HEPES buffer, pH 7.5 (measured at 25° C.) containing 100 mM sodium chloride and 10 mM magnesium chloride (1:10 w/v) using a Polytron PT3100 (speed setting 21,700 rpm, 3×5 seconds) and centrifuged at 49,500 g for 30 minutes at 4° C. The supernatant was discarded and the pellet rehomogenised in 20 mM HEPES buffer, pH 7.5 containing 100 mM sodium chloride and 10 mM magnesium chloride (equivalent to 12.5 mg wet weight of tissue/ml). Membranes were stored at −80° C. until required.
# Membranes were thawed, diluted 1:10 in ice-cold 20 mM HEPES buffer, pH 7.5 containing 100 mM sodium chloride and 10 mM magnesium chloride and homogenised using a Polytron PT3100 as above. Diluted membranes (200 μl; equivalent to 0.25 mg wet weight of tissue/tube) were incubated with 200 μl of 20 mM HEPES buffer, pH 7.5 containing 100 mM sodium chloride and 10 mM magnesium chloride and 50 μl [^3H]N-methylscopolamine at a single concentration of 0.15 nM and 50 μl distilled water (total binding) or 50 μl test compound (at a single concentration of 10^−6 M or at 10 concentrations ranging from 10^−11-10^−3 M) or 50 μl atropine sulphate (1 μM; non-specific binding) for 30 min at 30° C. Membrane bound radioactivity was recovered by filtration under vacuum through Skatron 11734 filters using a Skatron cell harvester. Filters were rapidly washed with ice-cold 20 mM HEPES buffer, pH 7.5 (wash 1,2 at setting 5,5). The scored filter paper discs were punched out into vials, scintillation fluid added and radioactivity determined by liquid scintillation counting.
# For each of these tests measuring the ability of compounds of Formula I to displace standard ligands from 5-HT1A receptors and 5-hydroxytryptamine (5-HT) and noradrenaline (NA) reuptake sites and muscarinic receptors in vitro, the percentage displacement of specific binding of tritiated ligand by 10^−6 M test compound was calculated in the following way.
# Firstly, specific binding of tritiated ligand in the absence (A) and presence (B) of test compound was determined:
# In the absence of compound: A(dpm)=Total binding (dpm)−Non-specific binding (dpm) In the presence of compound (10^−6 M): B(dpm)=Binding at 10^−6M (dpm)−Non-specific binding (dpm)
# The specific binding of tritiated ligand in the presence (B) of compound was then converted to a percentage of specific binding of tritiated ligand in the absence (A) of compound: % Specific binding at 10^−6 M=B(dpm)/A(dpm)×100
# The percentage displacement of specific binding of tritiated ligand by the test compound (10^−6 M) was then obtained by subtraction of the percentage specific binding in the presence of compound from the percentage specific binding in the absence of compound, which is taken as the maximum binding and so equals 100%:
# % Displacement at 10^−6 M=100−% Specific binding at 10^−6 M.
# In some cases, displacement curves were then produced for compounds which displaced ≧50% of specific binding of the tritiated ligand at 10^−6 M using a range of concentrations of the compound. The Ki was then calculated by simultaneous fitting using equations derived from the Feldman equations by robust non-linear regression to data from three experiments simultaneously (De Lean et al., 1978; Munson and Rodbard, 1980; Feldman, 1992). Munson P J and Rodbard D. Ligand: a versatile computerised approach for characterisation of ligand binding systems. Anal Biochem 1980; 107: 220. Feldman HA. Mathematical theory of complex ligand binding systems at equilibrium: some methods for parameter fitting. Anal Biochem 1992: 48, 317. De Lean A, Munson P J and Rodbard D. Simultaneous analysis of families of sigmoidal curves: application to bioassay, radioligand assay, and physiological dose-response curves. Am J Physiol 1978: 235 (2), E97-E102. […]
Muscarinic % displacement at 10^−6 M,Compound,further results
−3%,"OCC1=C(c2cccc3sccc23)N2CCN=C2S1 [Example 3, [3-(benzo[b]thiophen-4-yl)-5,6-dihydroimidazo[2,1-b]thiazol-2-yl]methanol]",
0%,"OCC1=C(c2cc3c(Cl)cccc3s2)N2CCN=C2S1 [Example 4, [3-(4-chlorobenzo[b]thiophen-2-yl)-5,6-dihydroimidazo[2,1-b]thiazol-2-yl]methanol]",
−2%,"Br.CC1=C(c2cc3ccccc3s2)N2CCN=C2S1 [Example 6, 3-(benzo[b]thiophen-2-yl)-2-methyl-5,6-dihydroimidazo[2,1-b]thiazole hydrobromide]",
17%,"Br.CC1=C(c2cc3c(F)cccc3s2)N2CCN=C2S1 [Example 7, 3-(4-fluorobenzo[b]thiophen-2-yl)-2-methyl-5,6-dihydroimidazo[2,1-b]thiazole hydrobromide]",
0%,"Br.CC1=C(c2cccc3sccc23)N2CCN=C2S1 [Example 8, 3-(benzo[b]thiophen-4-yl)-2-methyl-5,6-dihydroimidazo[2,1-b]thiazole hydrobromide]",
13%,"CC1=C(c2cccc3sccc23)N2CCN=C2S1.Cl [Example 9, 3-(benzo[b]thiophen-4-yl)-2-methyl-5,6-dihydroimidazo[2,1-b]thiazole hydrochloride]",
12%,"Br.CC1=C(c2cc3c(Cl)cccc3s2)N2CCN=C2S1 [Example 10, 3-(4-chlorobenzo[b]thiophen-2-yl)-2-methyl-5,6-dihydroimidazo[2,1-b]thiazole hydrobromide]",
22%,"Br.Oc1cccc2sc(C3=CSC4=NCCN34)cc12 [Example 12, 2-(5,6-dihydroimidazo[2,1-b]thiazol-3-yl)benzo[b]thiophen-4-ol hydrobromide]",
−15%,"OCC1=C(c2cc3ccccc3s2)N2CCN=C2S1 [Example 15, [3-(benzo[b]thiophen-2-yl)-5,6-dihydroimidazo[2,1-b]thiazol-2-yl]methanol]",
2%,"CSC1=C(c2cc3ccccc3s2)N2CCN=C2S1 [Example 19, 3-(benzo[b]thiophen-2-yl)-2-(methylthio)-5,6-dihydroimidazo[2,1-b]thiazole]",
9%,"Br.CC1=C(c2ccc3sccc3c2)N2CCN=C2S1 [Example 21, 3-(benzo[b]thiophen-5-yl)-2-methyl-5,6-dihydroimidazo[2,1-b]thiazole hydrobromide]",
−5%,"CC1=C(c2cccc3ccsc23)N2CCN=C2S1.Cl [Example 23, 3-(benzo[b]thiophen-7-yl)-2-methyl-5,6-dihydroimidazo[2,1-b]thiazole hydrochloride]",
−8%,"OCC1=C(c2ccc3sccc3c2)N2CCN=C2S1 [Example 28, [3-(benzo[b]thiophen-5-yl)-5,6-dihydroimidazo[2,1-b]-thiazol-2-yl]methanol]",
12%,"CSC1=C(c2ccc3sccc3c2)N2CCN=C2S1 [Example 30, 3-(benzo[b]thiophen-5-yl)-2-(methylthio)-5,6-dihydroimidazo[2,1-b]thiazole]",

# More lines, now with the values behind:
Compound,Muscarinic % displacement at 10^−6 M,further results
"Br.Clc1cccc2sc(C3=CSC4=NCCN34)cc12 [Example 1, 3-(4-chlorobenzo[b]thiophen-2-yl)-5,6-dihydroimidazo[2,1-b]thiazole hydrobromide]",7%,
"C1=C(c2cccc3sccc23)N2CCN=C2S1.Cl [Example 2, 3-(benzo[b]thiophen-4-yl)-5,6-dihydroimidazo[2,1-b]thiazole hydrochloride]",20%,
"Cl.Fc1cccc2sc(C3=CSC4=NCCN34)cc12 [Example 5, 3-(4-fluorobenzo[b]thiophen-2-yl)-5,6-dihydroimidazo[2,1-b]thiazole hydrochloride]",42%,
"Br.CCC1=C(c2cc3cc(Cl)ccc3s2)N2CCN=C2S1 [Example 11, 3-(5-chlorobenzo[b]thiophen-2-yl)-2-ethyl-5,6-dihydroimidazo[2,1-b]thiazole hydrobromide]",44%,
"Br.CCC1=C(c2cccc3sccc23)N2CCN=C2S1 [Example 13, 3-(benzo[b]thiophen-4-yl)-2-ethyl-5,6-dihydroimidazo[2,1-b]thiazole hydrobromide]",,Ki: 371 nM
"Cc1cccc2sc(C3=CSC4=NCCN34)cc12.Cl [Example 14, 3-(4-methylbenzo[b]thiophen-2-yl)-5,6-dihydroimidazo[2,1-b]thiazole hydrochloride]",9%,
"Br.CC1=C(c2cc3c(C)cccc3s2)N2CCN=C2S1 [Example 16, 2-methyl-3-(4-methylbenzo[b]thiophen-2-yl)-5,6-dihydroimidazo[2,1-b]thiazole hydrobromide]",0%,
"Br.CC1=C(c2cc3c(Cl)cccc3s2)N2CCCN=C2S1 [Example 17, 3-(4-chlorobenzo[b]thiophen-2-yl)-2-methyl-6,7-dihydro-5H-thiazolo[3,2-a]pyrimidine hydrobromide]",29%,
"Br.CCC1=C(c2cc3c(Cl)cccc3s2)N2CCN=C2S1 [Example 18, 3-(4-chlorobenzo[b]thiophen-2-yl)-2-ethyl-5,6-dihydroimidazo[2,1-b]thiazole hydrobromide]",12%,
"Br.CC1=C(c2cc3cccc(Cl)c3s2)N2CCN=C2S1 [Example 20, 3-(7-chlorobenzo[b]thiophen-2-yl)-2-methyl-5,6-dihydroimidazo[2,1-b]thiazole hydrobromide]",16%,
"CSC1=C(c2cccc3sccc23)N2CCN=C2S1.Cl [Example 22, 3-(benzo[b]thiophen-4-yl)-2-(methylthio)-5,6-dihydroimidazo[2,1-b]thiazole hydrochloride]",,Ki: 439 nM
"Br.CC1=C(c2cc3c(Cl)c(Cl)ccc3s2)N2CCN=C2S1 [Example 24, 3-(4,5-dichlorobenzo[b]thiophen-2-yl)-2-methyl-5,6-dihydroimidazo[2,1-b]-thiazole hydrobromide]",−10%,
"CCC1=C(c2cccc3sccc23)N2CCN=C2S1.O=C(O)/C=C/C(=O)O [Example 25, 3-(benzo[b]thiophen-4-yl)-2-ethyl-5,6-dihydroimidazo[2,1-b]thiazole fumarate]",,Ki (fumarate): 249 nM
"Br.COc1cccc2cc(C3=C(C)SC4=NCCN43)sc12 [Example 26, 3-(7-methoxybenzo[b]thiophen-2-yl)-2-methyl-5,6-dihydroimidazo[2,1-b]thiazole hydrobromide]",−11%,
"Br.CC1(c2cc3cc(F)ccc3s2)CSC2=NCCN21 (centres unmarked) [Example 27, 3-(5-fluorobenzo[b]thiophen-2-yl)-3-methyl-5,6-dihydroimidazo[2,1-b]thiazole hydrobromide]",−1%,
"CC(C)C1=C(c2ccc3sccc3c2)N2CCN=C2S1 [Example 29, 3-(benzo[b]thiophen-5-yl)-2-(1-methylethyl)-5,6-dihydroimidazo[2,1-b]-thiazole]",,Ki: 798 nM
"CCC1=C(c2ccc3sccc3c2)N2CCN=C2S1.O=C(O)/C=C/C(=O)O [Example 31, 3-(benzo[b]thiophen-5-yl)-2-ethyl-5,6-dihydroimidazo[2,1-b]thiazole fumarate]",26%,
"CSC1=C(c2cccc3sccc23)N2CCN=C2S1.O=C(O)/C=C/C(=O)O [Example 32, 3-(benzo[b]thiophen-4-yl)-2-(methylthio)-5,6-dihydroimidazo[2,1-b]thiazole fumarate]",,Ki (fumarate): 331 nM
